In patent US20060019945A1, “Granzyme b inhibitors” (priority 2002, published 2006):

Target: T1, human granzyme B (Homo sapiens, UniProt P10144)
T1 construct: the first amino acid of mature granzyme B; hexa-histidine tag (N, cleaved yes); Factor Xa recognition site Ile-Glu-Gly-Arg (N, cleaved yes); honeybee melittin secretion signal (N, cleaved yes); made in house; host or cells: Sf9 insect cells (baculovirus, Bac-to-Bac)
Assay: Fluorogenic assay for granzyme B (Ac-IEPD-AMC substrate)
Assay type: biochemical
Details: recombinant granzyme B, substrate Ac-IEPD-AMC 10 μM, pH 7.5, 25° C.; read-out: Gzm B Ki
Source text: Plasmids pMelBac and the TA Cloning Kit (pCR2.1) were purchased from Invitrogen (Carlsbad, Calif.). The Bac-to-Bac Baculovirus Expression System and all cell culture supplies were from Life Technologies (Gaithersburg, Md.). The human granzyme B protease has been identified and is known in the art. See, for example, Poe, et al., J. Biol. Chem. 266, 98-103. A vector was generated for secreted protein expression in the Bac-to-Bac system. The honeybee melittin secretion signal was amplified from pMelBac by PCR with primers 5′-GTGT AGATCTATGAAATTCTTAGTCAACG-3′ and 5′-TTCAGCAGAGTCGACTCCAAG-3′. The amplified product contained a BglII site upstream of the melittin secretion signal and spanned the multiple cloning site of the vector. The fragment was digested with BglII and EcoRI and subcloned into BamHI and EcoRI digested pFastBac. The resulting vector was designated pSecBac. Activatable tagged human granzyme B was cloned into pSecBac in two sequential steps. Firstly, mature granzyme B was amplified by PCR with primers 5′-GGATCC ATC GAA GGT CGT ATC ATC GGAGGACATGAGGCC-3′ and 5′-AAGCTTTTAGTAGCGCTTCATGGTCTTCTTTATCC-3′ and cloned into pCR2.1. In the sense primer, the bold type sequence coding for the Factor Xa recognition site, Ile-Glu-Gly-Arg, was inserted upstream of isoleucine 21 (referred to as ILE 16 in this paper using the numbering scheme for this family of serine proteases is traditionally based on the zymogen, chymotrypsinogen), the first amino acid of mature granzyme B. Secondly, hexa-histidine tagged, activatable granzyme B was amplified from the granzyme B/pCR2.1 clone by PCR using primers 5′-GGAAGATCTCATCATCATCATCATCATGGATCCATCGAAGGTCGTATC-3′ and 5′-CCT GAA TTC TTA GTA GCG TIT CAT GGT CTT CTT TAT CC-3′. The amplified product contained a Bali site upstream of the hex-histidine tag and contained the Factor Xa recognition sequence. This fragment was digested with Bali and ECOR and subcloned into BamHI and EcoRI digested pSecBac. The completed vector generated a recombinant baculovirus in Gibco BRL's Bac-to-Bac system, which would produce a secreted, 6-histidine tagged granzyme B. For protein expression, sf9 cells were grown to a density of 1.5×10^6 cells ml^−1 in Grace's medium (Cat. 11605-094) supplemented with 10% fetal calf serum and penicillin-streptomycin-glutamine (Cat. 10378-024). Prior to the addition of virus, cells were centrifuged at 1000×g for 15 minutes and resuspended to the same density in fresh growth medium containing recombinant viral stock and SP Sepharose beads (4 ml resin per liter of culture). After 72 hours of induction at 27° C., the resin was collected in a 50 micron Nylon mesh (PGC Scientifics), extensively washed with 50 mM Mes.NaOH, 0.3 M Na Cl, pH 6.6 and poured onto a column. The protein was eluted using a linear gradient (0.3 to 1.0 M) of NaCl. Fractions containing granzyme B activity were identified, combined and concentrated and then diluted in 20 mM Tris.HCl, pH 8.0. The sample was readjusted to a final pH 8.0, CaCl2 (3 mM final concentration) and factor Xa (Pharmacia, 10 units per mg of protein) were added, and incubated for 18 hours at room temperature to generate active granzyme B. Under these conditions, complete cleavage is achieved. The recombinant granzyme B was purified from the cleavage mixture using a 1 ml HiTrap SP column (Pharmacia). The yield can be as much as 4-5 mg of purified granzyme B per liter of culture. Mass spectral analysis identifies one major peak at 27,466 Da (other components of 27,320 Da and 26,630 Da were also consistently observed). Since the combined mass of the 227-amino acids defined by sequence analysis only accounts for 25,511.58 Da, we concluded that preparations of recombinant granzyme B purified with this method are more homogenous and less glycosylated than preparations of native granzyme B purified from NK cell granules. […]

T1 sequence (P10144 21-247): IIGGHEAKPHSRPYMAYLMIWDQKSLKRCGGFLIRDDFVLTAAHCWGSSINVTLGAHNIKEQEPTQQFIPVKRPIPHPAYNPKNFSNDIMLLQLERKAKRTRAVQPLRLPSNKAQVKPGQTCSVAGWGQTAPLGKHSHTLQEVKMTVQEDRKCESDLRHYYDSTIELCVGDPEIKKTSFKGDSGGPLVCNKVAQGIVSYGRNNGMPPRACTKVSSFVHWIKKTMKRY

Compound `CC[C@H](C)[C@H](NC(=O)CN(C)C)C(=O)N[C@H]1CCc2cccc3c2N(C1=O)[C@H](C(=O)NCc1nn[nH]n1)C3` [Example 25] has a Ki of 203 nM.

With `CC(=O)N1CSC(C)(C)[C@H]1C(=O)N[C@H]1CCc2cccc3c2N(C1=O)[C@H](C(=O)NCc1c[nH]nn1)C3` [Example 29] the Ki was 3880 nM.

Compound `CC(C)[C@@H](C(=O)N[C@H]1CCc2cccc3c2N(C1=O)[C@H](C(=O)NCc1nn[nH]n1)C3)c1ccccn1` [Example 21] has a Ki of 410 nM.

`CC[C@H](C)[C@H](NC(C)=O)C(=O)N[C@H]1CCc2cccc3c2N(C1=O)[C@H](C(=O)NCc1nn[nH]n1)C3` [Example 1, (2S,5S)-5-[(N-acetyl-L-isoleucyl)amino]-4-oxo-N-(1H-tetraazol-5-ylmethyl)-1,2,4,5,6,7-hexahydroazepino[3,2,1-hi]indole-2-carboxamide] gave a Ki of 74 nM.

`CC[C@H](C)[C@H](NC(=O)Cc1csc2ccccc12)C(=O)N[C@H]1CCc2cccc3c2N(C1=O)[C@H](C(=O)NCc1c[nH]nn1)C3` [Example 28] gave a Ki of 7 nM.

`CC(=O)N[C@H](C(=O)N[C@H]1CCc2cccc3c2N(C1=O)[C@H](C(=O)NCc1c[nH]nn1)C3)C1CCCC1` [Example 33] was tested, and the Ki was 71 nM.

Work on `CC[C@H](C)[C@H](NC(C)=O)C(=O)N[C@H]1CCc2cccc3c2N(C1=O)[C@H](C(=O)NCc1cn2cccnc2n1)C3` [Example 19] yielded a Ki of 788 nM.

`CC[C@H](C)[C@H](NC(=O)Cc1cccc(F)c1F)C(=O)N[C@H]1CCc2cccc3c2N(C1=O)[C@H](C(=O)NCc1nn[nH]n1)C3` [Example 24] showed a Ki of 36 nM.

Compound `O=C(CC1CCCC1)N[C@H]1CCc2cccc3c2N(C1=O)[C@H](C(=O)NCc1c[nH]nn1)C3` [Example 31] has a Ki of 1840 nM.

With `CC(=O)N[C@H](C(=O)N[C@H]1CCc2cccc3c2N(C1=O)[C@H](C(=O)NCc1c[nH]nn1)C3)C1CC1` [Example 32] the Ki was 1020 nM.

For `CC[C@H](C)[C@@H](C(=O)N[C@H]1CCc2cccc3c2N(C1=O)[C@H](C(=O)NCc1c[nH]nn1)C3)N1CCCC1=O` [Example 30], the Ki was 112 nM.

For `CC[C@H](C)[C@H](NC(C)=O)C(=O)N[C@H]1CCc2cccc3c2N(C1=O)[C@H](C(=O)NCc1c[nH]nn1)C3` [Example 2, (2S,5S)-5-[(N-acetyl-L-isoleucyl)amino]-4-oxo-N-(1H-1,2,3-triazol-4-ylmethyl)-1,2,4,5,6,7-hexahydroazepino[3,2,1-hi]indole-2-carboxamide], the Ki was 38 nM.

`CC[C@H](C)[C@H](NC(=O)Cc1csc2ccccc12)C(=O)N[C@H]1CCc2cccc3c2N(C1=O)[C@H](C(=O)NCc1nn[nH]n1)C3` [Example 26] gave a Ki of 17 nM.

`CC[C@H](C)[C@H](NC(=O)Cc1ccccc1)C(=O)N[C@H]1CCc2cccc3c2N(C1=O)[C@H](C(=O)NCc1c[nH]nn1)C3` [Example 4, (2S,5S)-4-oxo-5-{[N-(phenylacetyl)-L-isoleucyl]amino}-N-(1H-1,2,3-triazol-4-ylmethyl)-1,2,4,5,6,7-hexahydroazepino[3,2,1-hi]indole-2-carboxamide] gave a Ki of 13 nM.

`CC[C@H](C)[C@H](NC(=O)CN(C)C)C(=O)N[C@H]1CCc2cccc3c2N(C1=O)[C@H](C(=O)NCc1c[nH]nn1)C3` [Example 27] showed a Ki of 45 nM.
